Reference: patent publication EP4806898A1, “HETEROARYL DERIVATIVE COMPOUND AND USE THEREOF” (Voronoi Inc., priority 2023, dated 2025)

Assays:
recombinant USP1 protein = molecular target: T1, recombinant USP1 protein (Homo sapiens, UniProt O94782, DEL125-138/DEL229-408/DEL608-737); experiment: Binding affinity to recombinant USP1 protein by differential scanning fluorimetry; conditions: compound 100 µM; 0.03 mg/mL USP1 (Δ1-66, Δ125-138, Δ229-408, Δ608-737); Tm with compound minus Tm with DMSO; read-out: ΔTm (°C)
T1 sequence (O94782 with tags, fused parts or gaps DEL125-138/DEL229-408/DEL608-737): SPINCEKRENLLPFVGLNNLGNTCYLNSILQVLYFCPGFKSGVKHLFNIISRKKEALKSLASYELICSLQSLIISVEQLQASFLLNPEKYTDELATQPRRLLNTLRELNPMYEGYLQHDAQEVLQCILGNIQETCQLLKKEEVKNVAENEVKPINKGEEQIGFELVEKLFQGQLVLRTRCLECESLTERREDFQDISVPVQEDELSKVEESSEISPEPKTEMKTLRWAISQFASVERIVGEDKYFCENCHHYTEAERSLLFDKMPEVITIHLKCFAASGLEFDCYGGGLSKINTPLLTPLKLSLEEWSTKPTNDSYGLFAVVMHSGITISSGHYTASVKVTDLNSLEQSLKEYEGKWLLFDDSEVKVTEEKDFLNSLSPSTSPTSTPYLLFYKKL
Outline: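 USP1 (Δ1-66, Δ125-138, Δ229-408, Δ608-737) at 0.03 mg/mL with dye in 50 mM Tris-HCl pH 8.0, 150 mM NaCl, 2% glycerol, 1 mM DTT; compounds at 100 µM final. Tm read on real-time PCR instrument; ΔTm = Tm with compound minus Tm with DMSO.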

UWB1.289 cells = experiment: Cell proliferation inhibitory activity in BRCA1/2-mutant or HRD-positive cells (Cell Titer-Glo); type: cell-based; conditions: UWB1289; UWB1.289 cells, 144 hours after compound treatment, Cell Titer-Glo, 1.5 nM to 10 µM; read-out: GI50 UWB1.289 BRCA1 mut
Outline: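 UWB1.289 cells (1,000/well) in 50% MEBM/50% RPMI1640 exposed to […], final 1.5 nM to 10 µM, for 144 h at 37 °C. Viable cells measured by CellTiter-Glo luminescence; GI50 calculated.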

| ΔTm at 100 µM (recombinant USP1 protein) [°C] | SMILES | GI50 (UWB1.289 cells) [nM] |
| --- | --- | --- |
| > 5 | COc1ncnc(C2CC2)c1-c1ncc2cc(C(=O)N3CC(N(C)C)C3)n(Cc3ccc(-c4nc(C(F)(F)F)cn4C)cc3)c2n1 [Example 179, (2-(4-cyclopropyl-6-methoxypyrimid in-5-yl)-7-(4-(1-methyl-4-(trifluoromethyl)-1H-imidazol-2-yl)benzyl)-7H-pyrrolo[2,3-d]pyrimidin-6-yl) (3-(dimethylamino)azetidin-1-yl)methanone] | < 100 |
| > 5 | COc1ncnc(C2CC2)c1-c1ncc2cc(C(=O)NC[C@@H](O)C(C)C)n(Cc3ccc(-c4nc(C(F)(F)F)cn4C)cc3)c2n1 [Example 190, (S)-2-(4-cyclopropyl-6-methoxypyrimidin-5-yl)-N-(2-hydroxy-3-methylbutyl)-7-(4-(1-methyl-4-(trifluoromethyl)-1H-imidazol-2-yl)benzyl)-7H-pyrrolo[2,3-d]pyrimidine-6-carboxamide] | < 100 |
| > 5 | COc1ncnc(C2CC2)c1-c1ncc2cc(C(=O)N[C@@H](C)CCO)n(Cc3ccc(-c4nc(C(F)(F)F)cn4C)cc3)c2n1 [Example 191, (S)-2-(4-cyclopropyl-6-methoxypyrimidin-5-yl)-N-(4-hydroxybutan-2-yl)-7-(4-(1-methyl-4-(trifluoromethyl)-1H-imidazol-2-yl)benzyl)-7H-pyrrolo[2,3-d]pyrimidine-6-carboxamide] | < 100 |

The next lines start with the compound.

| SMILES | ΔTm at 100 µM (recombinant USP1 protein) [°C] | GI50 (UWB1.289 cells) [nM] |
| --- | --- | --- |
| COc1ncnc(C2CC2)c1-c1ncc2cc(C(=O)NC3CCN(C)CC3)n(Cc3ccc(-c4nc(C(F)(F)F)cn4C(C)C)cc3)c2n1 [Example 69, 2-(4-cyclopropyl-6-methoxypyrimidin-5-yl)-7-(4-(1-isopropyl-4-(trifluoromethyl)-1H-imidazol-2-yl)benzyl)-N-(1-methylpiperidin-4-yl)-7H-pyrrolo[2,3-d]pyrimidine-6-carboxamide] | > 5 | < 100 |
| COc1ncnc(C2CC2)c1-c1ncc2cc(C(=O)N3CC[C@@H](N(C)C)C3)n(Cc3ccc(-c4nc(C(F)(F)F)cn4C(C)C)cc3)c2n1 [Example 39, (R)-(2-(4-cyclopropyl-6-methoxypyrimidin-5-yl)-7-(4-(1-isopropyl-4-(trifluoromethyl)-1H-imidazol-2-yl)benzyl)-7H-pyrrolo[2,3-d]pyrimidin-6-yl) (3-(dimethylamino)pyrrolidin-1-yl)methanone] | > 5 | 100 to 500 |
| CN[C@H]1CCN(C(=O)c2cc3cnc(-c4c(OC)ncnc4C4CC4)nc3n2Cc2ccc(-c3nc(C(F)(F)F)cn3C(C)C)cc2)C1 [Example 97, (S)-(2-(4-cyclopropyl-6-methoxypyrimidin-5-yl)-7-(4-(1-isopropyl-4-(trifluoromethyl)-1H-imidazol-2-yl)benzyl)-7H-pyrrolo[2,3-d]pyrimidin-6-yl) (3-(methylamino)pyrrolidin-1-yl)methanone] | > 5 | 100 to 500 |
| CNCCNC(=O)c1cc2cnc(-c3c(OC)ncnc3C3CC3)nc2n1Cc1ccc(-c2nc(C(F)(F)F)cn2C(C)C)cc1 [Example 143, 2-(4-cyclopropyl-6-methoxypyrimidin-5-yl)-7-(4-(1-isopropyl-4-(trifluoromethyl)-1H-imidazol-2-yl)benzyl) -N-(2-(methylamino)ethyl)-7H-pyrrolo[2,3-d]pyrimidine-6-carboxamide] | > 5 | 100 to 500 |
| COc1ncnc(C2CC2)c1-c1ncc2cc(C(=O)N[C@@H]3CCN(C)C[C@@H]3F)n(Cc3ccc(-c4nc(C(F)(F)F)cn4C)cc3)c2n1 [Example 161, 2-(4-cyclopropyl-6-methoxypyrimidin-5-yl)-N-((3S,4R)-3-fluoro-1-methylpiperidin-4-yl)-7-(4-(1-methyl-4-(trifluoromethyl)-1H-imidazol-2-yl)benzyl)-7H-pyrrolo[2,3-d]pyrimidine-6-carboxamide] | > 5 | < 100 |
